Results reported in article PMC12375786, “Revolutionizing cancer treatment with Halomonas Aquamarina L-Glutaminase: insights from in vitro and computational studies” (Scientific Reports, 2025).

Test system: T1, L-GLS (L-glutaminase) of Halomonas aquamarina HBIM1
T1 construct: gene glsA
Conditions: unit printed as mM^-1 (reciprocal, probably mM meant); pH and temperature of the kinetic run not given

NC(=O)CC[C@H](N)C(=O)O [L-glutamine]
Km: 0.198 mM⁻¹
